# Tests used:
# ECL1002 = assay: Aztreonam potentiation (MPC@4), strain ECL1002; conditions: minimum BLI concentration inhibiting growth with aztreonam 4 μg/mL; tested up to 40 μg/mL
# KP1009 CTX-M-15 = assay: Aztreonam potentiation (MPC@4), strain KP1009 CTX-M-15; conditions: minimum BLI concentration inhibiting growth with aztreonam 4 μg/mL; tested up to 40 μg/mL
# KP1005 CTX-M-14 = assay: Tigemonam potentiation (MPC@4), strain KP1005 CTX-M-14; conditions: minimum BLI concentration inhibiting growth with tigemonam 4 μg/mL; tested up to 40 μg/mL
# AB1054 OXA-23 = assay: Meropenem potentiation (MPC@8), strain AB1054 OXA-23; format: cell-based, Acinetobacter baumannii; conditions: minimum BLI concentration inhibiting growth with meropenem 8 μg/mL; tested up to 20 μg/mL
# [1] = target: purified class A, C and D enzymes (β-lactamases) (Enterobacter cloacae, UniProt P05364); assay: biochemical; format: biochemical
# Chain of purified class A, C and D enzymes (β-lactamases) (Enterobacter cloacae, UniProt P05364) (P05364 21-381): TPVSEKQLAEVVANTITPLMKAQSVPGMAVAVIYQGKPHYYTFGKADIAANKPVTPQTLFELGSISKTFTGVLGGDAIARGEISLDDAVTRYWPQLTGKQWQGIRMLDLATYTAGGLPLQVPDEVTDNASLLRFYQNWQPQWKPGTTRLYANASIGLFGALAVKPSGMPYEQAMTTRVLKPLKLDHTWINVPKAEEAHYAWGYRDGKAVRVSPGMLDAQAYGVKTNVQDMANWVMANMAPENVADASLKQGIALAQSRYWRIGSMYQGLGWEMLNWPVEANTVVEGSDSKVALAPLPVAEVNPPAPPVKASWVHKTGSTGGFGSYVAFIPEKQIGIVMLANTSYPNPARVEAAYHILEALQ
# [2] = target: purified class A, C and D enzymes (β-lactamases) (Escherichia coli, UniProt Q9L5C7); assay: biochemical; format: biochemical; conditions: purified CTX-M-14; nitrocefin (NCF) as reporter substrate
# Chain of purified class A, C and D enzymes (β-lactamases) (Escherichia coli, UniProt Q9L5C7) (Q9L5C7 entry or part of it): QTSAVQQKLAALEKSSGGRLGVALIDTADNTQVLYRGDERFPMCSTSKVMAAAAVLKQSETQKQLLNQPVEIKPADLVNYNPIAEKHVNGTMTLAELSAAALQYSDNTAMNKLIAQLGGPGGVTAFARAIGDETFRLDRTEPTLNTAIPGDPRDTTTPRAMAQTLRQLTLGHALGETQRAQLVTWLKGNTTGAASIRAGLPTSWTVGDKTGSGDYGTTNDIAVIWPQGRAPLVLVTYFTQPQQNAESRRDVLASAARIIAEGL
# [3] = target: T1, purified class A, C and D enzymes (β-lactamases) (Acinetobacter baumannii, UniProt Q9L4P2); assay: biochemical; format: biochemical; conditions: purified OXA-23; nitrocefin (NCF) as reporter substrate
# T1 construct: rows headed: Ki (OXA-23, NCF), uM; other: purified OXA-23; nitrocefin (NCF) as reporter substrate
# T1 sequence (Q9L4P2 whole entry): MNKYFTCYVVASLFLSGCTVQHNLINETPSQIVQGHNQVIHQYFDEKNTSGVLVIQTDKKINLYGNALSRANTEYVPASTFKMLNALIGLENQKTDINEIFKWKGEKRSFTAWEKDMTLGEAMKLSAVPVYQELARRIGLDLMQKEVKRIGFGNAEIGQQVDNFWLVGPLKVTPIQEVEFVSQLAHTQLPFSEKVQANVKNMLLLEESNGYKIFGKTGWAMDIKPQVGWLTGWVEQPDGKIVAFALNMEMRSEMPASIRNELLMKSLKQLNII
# [4] = target: purified class A, C and D enzymes (β-lactamases) (Klebsiella pneumoniae, UniProt Q9F663); assay: biochemical; format: biochemical; conditions: purified KPC-2; nitrocefin (NCF) as reporter substrate
# [5] = target: T2, purified class A, C and D enzymes (β-lactamases) (Pseudomonas aeruginosa, UniProt P24735); assay: biochemical; format: biochemical
# T2 construct: rows headed: Ki (Pa-AmpC, NCF), uM; other: purified Pa-AmpC; nitrocefin (NCF) as reporter substrate
# T2 sequence (P24735 whole entry): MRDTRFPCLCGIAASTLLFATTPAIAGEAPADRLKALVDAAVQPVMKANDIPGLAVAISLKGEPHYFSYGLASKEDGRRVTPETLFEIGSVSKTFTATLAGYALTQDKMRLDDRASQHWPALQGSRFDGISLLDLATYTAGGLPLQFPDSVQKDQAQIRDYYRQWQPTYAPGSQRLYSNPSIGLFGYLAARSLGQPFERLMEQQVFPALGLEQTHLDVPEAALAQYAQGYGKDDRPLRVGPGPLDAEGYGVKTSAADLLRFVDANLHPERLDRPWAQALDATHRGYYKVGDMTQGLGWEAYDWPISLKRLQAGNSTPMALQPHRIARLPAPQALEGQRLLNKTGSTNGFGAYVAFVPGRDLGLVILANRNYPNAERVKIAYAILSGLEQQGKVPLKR
# [6] = target: purified class A, C and D enzymes (β-lactamases) (Klebsiella pneumoniae, UniProt Q6XEC0); assay: biochemical; format: biochemical; conditions: purified OXA-48; nitrocefin (NCF) as reporter substrate
# KP1004 KPC-2 [7] = assay: Aztreonam potentiation (MPC@4), strain KP1004 KPC-2; conditions: minimum BLI concentration inhibiting growth with aztreonam 4 μg/mL; tested up to 40 μg/mL
# ec302 TEM-10 = assay: Aztreonam potentiation (MPC@4), strain ec302 TEM-10; conditions: minimum BLI concentration inhibiting growth with aztreonam 4 μg/mL; tested up to 40 μg/mL
# KP1010 SHV-12 = assay: Aztreonam potentiation (MPC@4), strain KP1010 SHV-12; conditions: minimum BLI concentration inhibiting growth with aztreonam 4 μg/mL; tested up to 40 μg/mL
# AB1053 OXA-72 = assay: Meropenem potentiation (MPC@8), strain AB1053 OXA-72; format: cell-based, Acinetobacter baumannii; conditions: minimum BLI concentration inhibiting growth with meropenem 8 μg/mL; tested up to 20 μg/mL
# KP1004 KPC-2 [8] = assay: Biapenem potentiation (MPC@1), strain KP1004 KPC-2; format: cell-based; conditions: minimum BLI concentration inhibiting growth with biapenem 1 μg/mL; tested up to 40 μg/mL
# Protocol: (§1) Biapenem was present in the test medium at 1 μg/mL. […] Table 3 summarizes the BLI potency of biapenem potentiation (MPC@1) for two strains overexpressing class A (KPC) and class D (OXA-48) carbapenemases. Biapenem MIC for each strain is also shown.
# EC1010 CMY-6 = assay: Aztreonam potentiation (MPC@4), strain EC1010 CMY-6; conditions: minimum BLI concentration inhibiting growth with aztreonam 4 μg/mL; tested up to 40 μg/mL
# ec308 SHV-5 = assay: Aztreonam potentiation (MPC@4), strain ec308 SHV-5; conditions: minimum BLI concentration inhibiting growth with aztreonam 4 μg/mL; tested up to 40 μg/mL
# KP1086 OXA-48 = assay: Biapenem potentiation (MPC@1), strain KP1086 OXA-48; format: cell-based; conditions: minimum BLI concentration inhibiting growth with biapenem 1 μg/mL; tested up to 40 μg/mL
# Protocol: as §1
SMILES,AZT MPC4 ECL1002 (ECL1002),AZT MPC4 CTX-M-15 KP1009 (KP1009 CTX-M-15),TIG MPC4 CTX-M-14 KP1005 (KP1005 CTX-M-14),MPM MPC8 AB1054 OXA-23 (AB1054 OXA-23),"Ki (P99, NCF), uM [1]","Ki (CTX-M-14, NCF), uM [2]",Ki [3],"Ki (KPC-2, NCF), uM [4]",Ki [5],"Ki (OXA-48, NCF), uM [6]",AZT MPC4 KPC-2 KP1004 (KP1004 KPC-2 [7]),AZT MPC4 TEM-10 ec302 (ec302 TEM-10),AZT MPC4 SHV-12 KP1010 (KP1010 SHV-12),MPM MPC8 AB1053 OXA-72 (AB1053 OXA-72),BPM MPC1 KP1004 KPC-2 (KP1004 KPC-2 [8]),AZT MPC4 CMY-6 EC1010 (EC1010 CMY-6),AZT MPC4 SHV-5 ec308 (ec308 SHV-5),BPM MPC1 OXA-48 KP1086 (KP1086 OXA-48)
"NCCc1cn(-c2ccc3c(c2C(=O)O)O[B-](O)(O)CC3)nn1 [Compound 14, Disodium; 8-[4-(2-aminoethyl)triazol-1-yl]-4,4-dihydroxy-5-oxa-4-boranuidabicyclo[4.4.0]deca-1(6),7,9-triene-7-carboxylate]",Z (Z = MPC@4 > 20 μg/mL),Y (Y = 5 μg/mL < MPC@4 ≤ 20 μg/mL),Z (Z = MPC@4 > 20 μg/mL),X (X = MPC@1 ≤ 5 μg/mL),Y (key: X = Ki ≤ 0.1 μM; Y = 0.1 μM < Ki ≤ 1 μM; Z = Ki > 1 μM),X (X = Ki ≤ 0.1 μM),< 100 nM,X (X = Ki ≤ 0.1 μM),> 1000 nM,X (X = Ki ≤ 0.1 μM),X (X = MPC@4 ≤ 5 μg/mL),Y (Y = 5 μg/mL < MPC@4 ≤ 20 μg/mL),X (X = MPC@4 ≤ 5 μg/mL),X (X = MPC@1 ≤ 5 μg/mL),X (X = MPC@1 ≤ 5 μg/mL),Y (Y = 5 μg/mL < MPC@4 ≤ 20 μg/mL),Y (Y = 5 μg/mL < MPC@4 ≤ 20 μg/mL),X (X = MPC@1 ≤ 5 μg/mL)
"O=C(O)c1c(-c2c[nH]nn2)ccc2c1O[B-](O)(O)CC2 [Compound 16, Disodium; 4,4-dihydroxy-8-(1H-triazol-5-yl)-5-oxa-4-boranuidabicyclo[4.4.0]deca-1(6),7,9-triene-7-carboxylate]",X (X = MPC@4 ≤ 5 μg/mL),X (X = MPC@4 ≤ 5 μg/mL),Y (Y = 5 μg/mL < MPC@4 ≤ 20 μg/mL),Y (Y = 5 μg/mL < MPC@1 ≤ 20 μg/mL),X (key: X = Ki ≤ 0.1 μM; Y = 0.1 μM < Ki ≤ 1 μM; Z = Ki > 1 μM),X (X = Ki ≤ 0.1 μM),< 100 nM,X (X = Ki ≤ 0.1 μM),< 100 nM,X (X = Ki ≤ 0.1 μM),X (X = MPC@4 ≤ 5 μg/mL),X (X = MPC@4 ≤ 5 μg/mL),X (X = MPC@4 ≤ 5 μg/mL),X (X = MPC@1 ≤ 5 μg/mL),X (X = MPC@1 ≤ 5 μg/mL),X (X = MPC@4 ≤ 5 μg/mL),Y (Y = 5 μg/mL < MPC@4 ≤ 20 μg/mL),Y (Y = 5 μg/mL < MPC@1 ≤ 20 μg/mL)
"O=C([O-])c1c(CSC2CNC2)ccc2c1O[B-](O)(O)CC2.[Na+].[Na+] [Compound 19, Disodium; 8-(azetidin-3-ylsulfanylmethyl)-4,4-dihydroxy-5-oxa-4-boranuidabicyclo[4.4.0]deca-1(6),7,9-triene-7-carboxylate]",Y (Y = 5 μg/mL < MPC@4 ≤ 20 μg/mL),X (X = MPC@4 ≤ 5 μg/mL),Z (Z = MPC@4 > 20 μg/mL),X (X = MPC@1 ≤ 5 μg/mL),X (key: X = Ki ≤ 0.1 μM; Y = 0.1 μM < Ki ≤ 1 μM; Z = Ki > 1 μM),X (X = Ki ≤ 0.1 μM),< 100 nM,X (X = Ki ≤ 0.1 μM),< 100 nM,X (X = Ki ≤ 0.1 μM),X (X = MPC@4 ≤ 5 μg/mL),Y (Y = 5 μg/mL < MPC@4 ≤ 20 μg/mL),X (X = MPC@4 ≤ 5 μg/mL),X (X = MPC@1 ≤ 5 μg/mL),X (X = MPC@1 ≤ 5 μg/mL),X (X = MPC@4 ≤ 5 μg/mL),X (X = MPC@4 ≤ 5 μg/mL),X (X = MPC@1 ≤ 5 μg/mL)
"O=C([O-])c1c(CSc2nncs2)ccc2c1O[B-](O)(O)CC2.[Na+].[Na+] [Compound 20, Disodium; 4,4-dihydroxy-8-(1,3,4-thiadiazol-2-ylsulfanylmethyl)-5-oxa-4-boranuidabicyclo[4.4.0]deca-1(6),7,9-triene-7-carboxylate]",X (X = MPC@4 ≤ 5 μg/mL),X (X = MPC@4 ≤ 5 μg/mL),Y (Y = 5 μg/mL < MPC@4 ≤ 20 μg/mL),Y (Y = 5 μg/mL < MPC@1 ≤ 20 μg/mL),X (key: X = Ki ≤ 0.1 μM; Y = 0.1 μM < Ki ≤ 1 μM; Z = Ki > 1 μM),X (X = Ki ≤ 0.1 μM),< 100 nM,X (X = Ki ≤ 0.1 μM),< 100 nM,X (X = Ki ≤ 0.1 μM),X (X = MPC@4 ≤ 5 μg/mL),X (X = MPC@4 ≤ 5 μg/mL),X (X = MPC@4 ≤ 5 μg/mL),Y (Y = 5 μg/mL < MPC@1 ≤ 20 μg/mL),X (X = MPC@1 ≤ 5 μg/mL),X (X = MPC@4 ≤ 5 μg/mL),X (X = MPC@4 ≤ 5 μg/mL),X (X = MPC@1 ≤ 5 μg/mL)
"NCCCSCc1ccc2c(c1C(=O)[O-])O[B-](O)(O)CC2.[Na+].[Na+] [Compound 21, Disodium; 8-(3-aminopropylsulfanylmethyl)-4,4-dihydroxy-5-oxa-4-boranuidabicyclo[4.4.0]deca-1(6),7,9-triene-7-carboxylate]",Y (Y = 5 μg/mL < MPC@4 ≤ 20 μg/mL),Y (Y = 5 μg/mL < MPC@4 ≤ 20 μg/mL),Z (Z = MPC@4 > 20 μg/mL),X (X = MPC@1 ≤ 5 μg/mL),X (key: X = Ki ≤ 0.1 μM; Y = 0.1 μM < Ki ≤ 1 μM; Z = Ki > 1 μM),X (X = Ki ≤ 0.1 μM),< 100 nM,X (X = Ki ≤ 0.1 μM),< 100 nM,X (X = Ki ≤ 0.1 μM),X (X = MPC@4 ≤ 5 μg/mL),Y (Y = 5 μg/mL < MPC@4 ≤ 20 μg/mL),X (X = MPC@4 ≤ 5 μg/mL),X (X = MPC@1 ≤ 5 μg/mL),X (X = MPC@1 ≤ 5 μg/mL),X (X = MPC@4 ≤ 5 μg/mL),Y (Y = 5 μg/mL < MPC@4 ≤ 20 μg/mL),X (X = MPC@1 ≤ 5 μg/mL)
"Nc1nnc(SCc2ccc3c(c2C(=O)[O-])O[B-](O)(O)CC3)s1.[Na+].[Na+] [Compound 22, Disodium; 8-[(5-amino-1,3,4-thiadiazol-2-yl)sulfanylmethyl]-4,4-dihydroxy-5-oxa-4-boranuidabicyclo[4.4.0]deca-1(6),7,9-triene-7-carboxylate]",Y (Y = 5 μg/mL < MPC@4 ≤ 20 μg/mL),Y (Y = 5 μg/mL < MPC@4 ≤ 20 μg/mL),Z (Z = MPC@4 > 20 μg/mL),Y (Y = 5 μg/mL < MPC@1 ≤ 20 μg/mL),X (key: X = Ki ≤ 0.1 μM; Y = 0.1 μM < Ki ≤ 1 μM; Z = Ki > 1 μM),X (X = Ki ≤ 0.1 μM),< 100 nM,X (X = Ki ≤ 0.1 μM),< 100 nM,X (X = Ki ≤ 0.1 μM),X (X = MPC@4 ≤ 5 μg/mL),X (X = MPC@4 ≤ 5 μg/mL),X (X = MPC@4 ≤ 5 μg/mL),Z (Z = MPC@1 > 20 μg/mL),X (X = MPC@1 ≤ 5 μg/mL),X (X = MPC@4 ≤ 5 μg/mL),Y (Y = 5 μg/mL < MPC@4 ≤ 20 μg/mL),Y (Y = 5 μg/mL < MPC@1 ≤ 20 μg/mL)
